This note sets out measurements from patent US20250144094A1 (Erasca, Inc., priority 2021, published 2025).

Molecules are shown by their SMILES.

The target of the test is Recombinant human ULK1 (1-649) (Homo sapiens (Human), UniProt O75385). In words: ULK1 ADP Glo kinase activity assay (MBP substrate). Particulars: 25° C., 40 minutes, read-out: ULK1 biochemical IC50. An outline of the steps:
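GST-tagged ULK1 (1-649) from Sf9 cells phosphorylated MBP, with ATP, for 40 min at 25 °C across a 12-point series from 10 uM. ADP formed was quantified by ADP-Glo luminescence against DMSO controls. IC50 came from a four-parameter variable-slope fit of log concentration.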
(In general: ADP-Glo turns the ADP formed in a reaction into a luminescent signal.)

Recombinant human ULK1 (1-649), sequence (O75385 1-649): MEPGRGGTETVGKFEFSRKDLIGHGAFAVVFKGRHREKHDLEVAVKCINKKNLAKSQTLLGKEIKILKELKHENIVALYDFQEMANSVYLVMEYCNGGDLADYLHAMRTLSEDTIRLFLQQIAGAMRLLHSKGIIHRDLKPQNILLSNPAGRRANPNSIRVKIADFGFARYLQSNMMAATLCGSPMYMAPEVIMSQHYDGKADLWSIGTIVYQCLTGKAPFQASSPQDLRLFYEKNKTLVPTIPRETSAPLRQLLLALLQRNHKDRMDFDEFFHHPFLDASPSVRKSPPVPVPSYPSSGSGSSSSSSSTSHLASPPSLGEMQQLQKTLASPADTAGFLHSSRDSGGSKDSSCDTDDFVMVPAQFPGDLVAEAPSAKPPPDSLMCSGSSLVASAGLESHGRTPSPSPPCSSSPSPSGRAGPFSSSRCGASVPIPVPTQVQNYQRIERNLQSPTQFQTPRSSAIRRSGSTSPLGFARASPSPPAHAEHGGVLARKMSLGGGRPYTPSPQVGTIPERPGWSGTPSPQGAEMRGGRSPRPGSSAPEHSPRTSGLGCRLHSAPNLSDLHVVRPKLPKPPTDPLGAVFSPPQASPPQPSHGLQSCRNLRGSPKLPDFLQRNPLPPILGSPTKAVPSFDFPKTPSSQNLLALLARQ

In general, IC50 refers to the concentration at which inhibition is half-maximal. Turning to `CS(=O)(=O)N1CCc2sc(-c3nc(Nc4cc5c(cc4Cl)CNCC5)ncc3C(F)(F)F)cc2C1=O` [Example 44, 2-(2-((7-chloro-1,2,3,4-tetrahydroisoquinolin-6-yl)amino)-5-(trifluoromethyl)pyrimidin-4-yl)-5-(methylsulfonyl)-6,7-dihydrothieno[3,2-c]pyridin-4(5H)-one], the IC50 is at most 10 nM.

In the case of `CS(=O)(=O)c1cc(-c2nc(Nc3cc4c(cc3Cl)CNCC4)ncc2C(F)(F)F)sc1C1=CCOCC1` [Example 75, 7-chloro-N-(4-(5-(3,6-dihydro-2H-pyran-4-yl)-4-(methylsulfonyl)thiophen-2-yl)-5-(trifluoromethyl)pyrimidin-2-yl)-1,2,3,4-tetrahydroisoquinolin-6-amine], the half-maximal inhibitory concentration (IC50) was at most 10 nM.

With `CS(=O)(=O)c1csc(-c2nc(Nc3cc4c(cc3Cl)CNCCC4)ncc2C(F)(F)F)c1` [Example 127, 8-chloro-N-(4-(4-(methylsulfonyl)thiophen-2-yl)-5-(trifluoromethyl)pyrimidin-2-yl)-2,3,4,5-tetrahydro-1H-benzo[c]azepin-7-amine], the concentration for half-maximal inhibition (IC50) is at most 10 nM.

As for `FC(F)(F)c1cnc(Nc2cc3c(cc2Cl)CNCC3)nc1-c1cc(C2=NCCO2)cs1` [Example 8, 7-chloro-N-(4-(4-(4,5-dihydrooxazol-2-yl)thiophen-2-yl)-5-(trifluoromethyl)pyrimidin-2-yl)-1,2,3,4-tetrahydroisoquinolin-6-amine], the half-maximal inhibitory concentration (IC50) lay within 10 to 50 nM.

Consider `COCCOc1sc(-c2nc(Nc3cc4c(cc3Cl)CNCC4)ncc2C(F)(F)F)cc1C(N)=O` [Example 55, 5-(2-((7-chloro-1,2,3,4-tetrahydroisoquinolin-6-yl)amino)-5-(trifluoromethyl)pyrimidin-4-yl)-2-(2-methoxyethoxy)thiophene-3-carboxamide], for which the IC50 was at most 10 nM.

As for `CN1Cc2cc(Cl)c(Nc3ncc(C(F)(F)F)c(-c4cc(C(N)=O)cs4)n3)cc2C1` [Example 17, 5-(2-((6-Chloro-2-methylisoindolin-5-yl)amino)-5-(trifluoromethyl)pyrimidin-4-yl)thiophene-3-carboxamide], the IC50 was at most 10 nM.

With `CN1CCc2cc(Nc3ncc(C(F)(F)F)c(-c4cc(S(C)(=O)=O)c(C5CCOCC5)s4)n3)c(Cl)cc2C1` [Example 87, 7-chloro-2-methyl-N-(4-(4-(methylsulfonyl)-5-(tetrahydro-2H-pyran-4-yl)thiophen-2-yl)-5-(trifluoromethyl)pyrimidin-2-yl)-1,2,3,4-tetrahydroisoquinolin-6-amine], the 50% inhibitory concentration (IC50) was at most 10 nM.

In the case of `CN1CCc2cc(Nc3ncc(C(F)(F)F)c(-c4cc5c(s4)C(=O)NCCS5(=O)=O)n3)c(Cl)cc2C1` [Example 86, 7-(2-((7-chloro-2-methyl-1,2,3,4-tetrahydroisoquinolin-6-yl)amino)-5 (trifluoromethyl)pyrimidin-4-yl)-3,4-dihydrothieno[2,3-f][1,4]thiazepin-5(2H)-one 1,1-dioxide], the IC50 was at most 10 nM.

On to `CS(=O)(=O)c1cc(-c2nc(Nc3cc4c(cc3Cl)CNCC4)ncc2C(F)(F)F)sc1C1=CCS(=O)(=O)CC1` [Example 78, 4-(5-(2-((7-chloro-1,2,3,4-tetrahydroisoquinolin-6-yl)amino)-5-(trifluoromethyl)pyrimidin-4-yl)-3-(methylsulfonyl)thiophen-2-yl)-3,6-dihydro-2H-thiopyran 1,1-dioxide], for which the IC50 was at most 10 nM.

Regarding `CN1CCCc2cc(Nc3ncc(C(F)(F)F)c(-c4cc(S(C)(=O)=O)cs4)n3)c(Cl)cc2C1` [Example 133, 8-chloro-2-methyl-N-(4-(4-(methylsulfonyl)thiophen-2-yl)-5-(trifluoromethyl)pyrimidin-2-yl)-2,3,4,5-tetrahydro-1H-benzo[c]azepin-7-amine], the IC50 was at most 10 nM.

For `CN1CCc2cc(Nc3ncc(C(F)(F)F)c(-c4cc5c(s4)C(=O)N(C)CCS5(=O)=O)n3)c(Cl)cc2C1` [Example 116, 7-[2-[(7-chloro-2-methyl-3,4-dihydro-1H-isoquinolin-6-yl)amino]-5-(trifluoromethyl)pyrimidin-4-yl]-4-methyl-1,1-dioxo-2,3-dihydrothieno[2,3-f][1,4]thiazepin-5-one], the IC50 is at most 10 nM.

Regarding `CN1Cc2cc(F)c(Nc3ncc(C(F)(F)F)c(-c4cc(S(C)(=O)=O)cs4)n3)cc2C1` [Example 80, 6-fluoro-N-[4-(4-methanesulfonylthiophen-2-yl)-5-(trifluoromethyl)pyrimidin-2-yl]-2-methyl-2,3-dihydro-1H-isoindol-5-amine], the IC50 was at most 10 nM.

Turning to `CN1CCc2cc(F)c(Nc3ncc(C(F)(F)F)c(-c4cc(S(C)(=O)=O)cs4)n3)cc2C1` [Example 111, 6-fluoro-2-methyl-N-[4-(4-methylsulfonyl-2-thienyl)-5-(trifluoromethyl)pyrimidin-2-yl]-3,4-dihydro-1H-isoquinolin-7-amine], the IC50 is at most 10 nM.

With `CS(=O)(=O)c1csc(-c2nc(Nc3cn(C4CCNCC4)nc3C3CC3)ncc2C(F)(F)F)c1` [Example 128, N-(3-Cyclopropyl-1-(piperidin-4-yl)-1H-pyrazol-4-yl)-4-(4-(methylsulfonyl)thiophen-2-yl)-5-(trifluoromethyl)pyrimidin-2-amine], the IC50 is at most 10 nM.

As to `CCN1CCc2sc(-c3nc(Nc4cc5c(cc4Cl)CNCC5)ncc3C(F)(F)F)cc2C1=O` [Example 22, 2-(2-((7-chloro-1,2,3,4-tetrahydroisoquinolin-6-yl)amino)-5-(trifluoromethyl)pyrimidin-4-yl)-5-ethyl-6,7-dihydrothieno[3,2-c]pyridin-4(5H)-one], the IC50 was at most 10 nM.

As to `CN1Cc2cc(Nc3ncc(C(F)(F)F)c(-c4cc(C(N)=O)cs4)n3)c(C3CC3)cc2C1` [Example 19, 5-(2-((6-Cyclopropyl-2-methylisoindolin-5-yl)amino)-5-(trifluoromethyl)pyrimidin-4-yl)thiophene-3-carboxamide], the IC50 was at most 10 nM.

Consider `O=C1NCCc2sc(-c3nc(Nc4cc5c(cc4Cl)CNCC5)ncc3C(F)(F)F)cc21` [Example 4, 2-(2-((7-chloro-1,2,3,4-tetrahydroisoquinolin-6-yl)amino)-5-(trifluoromethyl)pyrimidin-4-yl)-6,7-dihydrothieno[3,2-c]pyridin-4(5H)-one], for which the 50% inhibitory concentration (IC50) was at most 10 nM.

In the case of `CCc1cc(N2CCN(C)CC2)ccc1Nc1ncc(C(F)(F)F)c(-c2cc3c(s2)CCNC3=O)n1` [Example 39, 2-(2-((2-ethyl-4-(4-methylpiperazin-1-yl)phenyl)amino)-5-(trifluoromethyl)pyrimidin-4-yl)-6,7-dihydrothieno[3,2-c]pyridin-4(5H)-one], the IC50 was at most 10 nM.

As for `CS(=O)(=O)c1csc(-c2nc(Nc3cc4c(cc3Cl)CN(C3CC3)C4)ncc2C(F)(F)F)c1` [Example 113, 6-chloro-2-cyclopropyl-N-[4-(4-methylsulfonyl-2-thienyl)-5-(trifluoromethyl)pyrimidin-2-yl]isoindolin-5-amine], the 50% inhibitory concentration (IC50) lay within 10 to 50 nM.

For the compound `CN(C)C(=O)c1ccc(-c2nc(Nc3cc4c(cc3Cl)CNCC4)ncc2C(F)(F)F)s1` [Example 3, 5-(2-((7-chloro-1,2,3,4-tetrahydroisoquinolin-6-yl)amino)-5-(trifluoromethyl)pyrimidin-4-yl)-N,N-dimethylthiophene-2-carboxamide], the half-inhibitory concentration (IC50) was at most 10 nM.

For `CN1CCCc2sc(-c3nc(Nc4cc5c(cc4Cl)CNCC5)ncc3C(F)(F)F)cc2C1=O` [Example 47, 2-(2-((7-chloro-1,2,3,4-tetrahydroisoquinolin-6-yl)amino)-5-(trifluoromethyl)pyrimidin-4-yl)-5-methyl-5,6,7,8-tetrahydro-4H-thieno[3,2-c]azepin-4-one], the IC50 was at most 10 nM.

Take `CS(=O)(=O)c1csc(-c2nc(Nc3ccc4c(c3)CNCC4)ncc2C(F)(F)F)c1` [Example 101, N-[4-(4-methanesulfonylthiophen-2-yl)-5-(trifluoromethyl)pyrimidin-2-yl]-1,2,3,4-tetrahydroisoquinolin-7-amine]: the IC50 is at most 10 nM.

For `O=C1NCCOc2sc(-c3nc(Nc4cc5c(cc4Cl)CN(C(=O)C(F)(F)F)CC5)ncc3C(F)(F)F)cc21` [compound 70], the IC50 was in the range of 10 to 50 nM.

Regarding `NC(=O)c1csc(-c2nc(Nc3cc4c(cc3Cl)CNCC4)ncc2C(N)=O)c1` [Example 26, 4-(4-Carbamoylthiophen-2-yl)-2-((7-chloro-1,2,3,4-tetrahydroisoquinolin-6-yl)amino)pyrimidine-5-carboxamide], the half-inhibitory concentration (IC50) is over 500 nM.

For the compound `CS(=O)(=O)c1csc(-c2nc(Nc3cc4c(cc3F)CN(C3CC3)CC4)ncc2C(F)(F)F)c1` [Example 118, 2-cyclopropyl-7-fluoro-N-[4-(4-methylsulfonyl-2-thienyl)-5-(trifluoromethyl)pyrimidin-2-yl]-3,4-dihydro-1H-isoquinolin-6-amine], the IC50 is 10 to 50 nM.

Consider `COCc1sc(-c2nc(Nc3cc4c(cc3Cl)CNCC4)ncc2C(F)(F)F)cc1S(C)(=O)=O` [Example 96, 7-chloro-N-(4-(5-(methoxymethyl)-4-(methylsulfonyl)thiophen-2-yl)-5-(trifluoromethyl)pyrimidin-2-yl)-1,2,3,4-tetrahydroisoquinolin-6-amine], for which the IC50 was 10 to 50 nM.

`CS(=O)(=O)c1csc(-c2nc(Nc3cc4c(cc3Cl)CNCC4)ncc2Cl)c1` [Example 93, 7-chloro-N-(5-chloro-4-(4-(methylsulfonyl)thiophen-2-yl)pyrimidin-2-yl)-1,2,3,4-tetrahydroisoquinolin-6-amine]: the half-maximal inhibitory concentration (IC50) is at most 10 nM.

`NC(=O)c1csc(-c2nc(Nc3cc4c(cc3Cl)CNC4)ncc2C(F)(F)F)c1` [Example 7, 5-(2-((6-chloroisoindolin-5-yl)amino)-5-(trifluoromethyl)pyrimidin-4-yl)thiophene-3-carboxamide]: the IC50 is at most 10 nM.

As to `O=S1(=O)NCCCc2sc(-c3nc(Nc4cc5c(cc4Cl)CNCC5)ncc3C(F)(F)F)cc21` [Example 84, 7-(2-((7-chloro-1,2,3,4-tetrahydroisoquinolin-6-yl)amino)-5-(trifluoromethyl)pyrimidin-4-yl)-2,3,4,5-tetrahydrothieno[2,3-f][1,2]thiazepine 1,1-dioxide], the concentration for half-maximal inhibition (IC50) was at most 10 nM.
